Measured values: PubChem BioAssay (NCI)
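Compound exposure: 48 hours, 5 concentrations, 96-well plates. The concentration for 50% growth inhibition is given as GI50. TGI is the concentration that stops growth completely.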

What was measured:
Assay in all cases: NCI tumour cell line growth inhibition, 48 h
SW-620 colon = test system: SW-620 colon
U251 CNS = test system: U251 CNS
NCI-H522 lung = test system: NCI-H522 lung
IGROV1 ovarian = test system: IGROV1 ovarian
MOLT-4 leukemia = test system: MOLT-4 leukemia
NCI-H460 lung = test system: NCI-H460 lung
SNB-75 CNS = test system: SNB-75 CNS
HCC-2998 colon = test system: HCC-2998 colon
KM12 colon = test system: KM12 colon
NCI/ADR-RES ovarian = test system: NCI/ADR-RES ovarian

Row | SMILES | TGI (SW-620 colon) | TGI (U251 CNS) | TGI (NCI-H522 lung) | TGI (IGROV1 ovarian) | TGI (MOLT-4 leukemia) | TGI (NCI-H460 lung) | TGI (SNB-75 CNS) | TGI (HCC-2998 colon) | TGI (KM12 colon) | TGI (NCI/ADR-RES ovarian) | GI50 (SW-620 colon) | GI50 (U251 CNS) | GI50 (NCI/ADR-RES ovarian) | GI50 (NCI-H522 lung) | GI50 (IGROV1 ovarian) | GI50 (MOLT-4 leukemia) | GI50 (NCI-H460 lung) | GI50 (HCC-2998 colon) | GI50 (SNB-75 CNS) | GI50 (KM12 colon)
1 | c1ccc2c(c1)nc1n2CSC1 | > 100 µM | > 100 µM | > 100 µM | > 100 µM | > 100 µM | > 100 µM | > 100 µM | – | – | – | – | – | – | – | – | – | – | – | – | –
2 | CC1=C[C@]2(CC(C)C3C(CC4(C)C5CCC6C(C)(C)C(=O)CC[C@@]67C[C@@]57CC[C@]34C)O2)OC1=O (stereo partly drawn) | > 100 µM | > 100 µM | – | > 100 µM | > 100 µM | > 100 µM | 42.1 µM | > 100 µM | > 100 µM | – | – | – | – | – | – | – | – | – | – | –
3 | Cc1nc2ccccc2c(=O)n1CC(=O)O | > 100 µM | > 100 µM | > 100 µM | > 100 µM | > 100 µM | > 100 µM | > 100 µM | > 100 µM | > 100 µM | > 100 µM | – | – | – | – | – | – | – | – | – | –
4 | CCN(CC)CCCC(Nc1c2ccc(Cl)cc2nc2ccc(OC)cc12)c1ccc(F)cc1 (stereo not drawn) | 3.65 µM | 3.88 µM | 4.58 µM | 9.06 µM | 7.06 µM | 3.84 µM | 2.66 µM | 3.25 µM | 3.67 µM | 5.75 µM | 1790 nM | 1920 nM | 2380 nM | 2010 nM | 3.15 µM | 2720 nM | 1910 nM | 1740 nM | 1.21 µM | 2 µM
5 | Cc1cccc2c(N)c3cccc(C(=O)NCCN(C)C)c3nc12 | – | 0.604 µM | 0.0737 µM | 0.508 µM | – | 0.0262 µM | 0.615 µM | 0.218 µM | 0.856 µM | 4.74 µM | – | – | – | – | – | – | – | – | – | –
6 | CCCCN(CCCC)CCCCNc1c(C)cnc2cc(Cl)ccc12 | 56.8 µM | > 100 µM | 35.6 µM | – | > 100 µM | > 100 µM | – | 29.4 µM | > 100 µM | – | – | – | – | – | – | – | – | – | – | –
7 | Nc1ncnc2c1ncn2C1CCC(CO)O1 (stereo not drawn) | > 100 µM | > 100 µM | > 100 µM | > 100 µM | > 100 µM | > 100 µM | > 100 µM | > 77.4 µM | > 100 µM | > 77.4 µM | – | – | – | – | – | – | – | – | – | –
8 | [C-]#[O+].[Cl][Sn]([Cl])[Cl].[Cl][Sn]([Cl])[Cl].[Pt].c1ccncc1 | > 100 µM | > 100 µM | > 65.3 µM | > 100 µM | > 100 µM | > 100 µM | > 100 µM | > 100 µM | > 100 µM | > 100 µM | – | – | > 100000 nM | – | – | – | – | – | – | –
9 | CO/N=C1/c2sccc2[C@H](NC(=O)C(F)(F)F)[C@@H]1O | > 100 µM | > 100 µM | – | > 100 µM | > 100 µM | > 100 µM | > 100 µM | > 100 µM | – | > 100 µM | – | – | – | – | – | – | – | – | – | –
10 | CCOc1ccc(/C=C/[N+](=O)[O-])cc1 | 11.9 µM | 8.83 µM | 28 µM | > 100 µM | 42.9 µM | > 100 µM | 30.9 µM | 3.94 µM | 15.4 µM | > 100 µM | 3150 nM | 3100 nM | 33000 nM | 13200 nM | 21.8 µM | 5700 nM | 26800 nM | 1820 nM | 13 µM | 4.51 µM
11 | CC(/C=C/c1ccc([N+](=O)[O-])o1)=N/N1CC(CN2CCOCC2)OC1=O (stereo not drawn) | 77.3 µM | > 100 µM | – | – | 68.6 µM | 46.9 µM | – | > 100 µM | > 100 µM | 95.9 µM | – | – | – | – | – | – | – | – | – | –
12 | CCOP(=O)(OCC)C(Cc1ccc(OC)c(OC)c1)N=C(c1ccccc1)c1ccccc1 (stereo not drawn) | > 100 µM | > 100 µM | 97.3 µM | > 100 µM | – | > 100 µM | 81.1 µM | 52.4 µM | > 100 µM | > 100 µM | – | – | – | – | – | – | – | – | – | –
13 | CC(C)=CCc1c(C)cc2cc3c(c(O)c2c1O)C(O)=CC(=O)C3(CC=C(C)C)C/C=C(\C)CO (stereo not drawn) | 78.9 µM | 70 µM | 65.2 µM | 79.6 µM | 75.7 µM | 98.9 µM | 92.8 µM | 88.6 µM | 81.7 µM | 102 µM | – | – | – | – | – | – | – | – | – | –
14 | COc1cc2c3c(n(CCN(C)C)c(=O)c2cc1OC)-c1cc2c(cc1C3=O)OCO2 | > 100 µM | > 100 µM | > 100 µM | > 100 µM | – | > 100 µM | > 100 µM | > 100 µM | > 60.2 µM | > 40 µM | 2860 nM | 2640 nM | 315 nM | 2510 nM | 18.6 µM | < 49.1 nM | 157 nM | 3500 nM | 8.22 µM | 15.2 µM
15 | COc1ccc(/C=N/NC(=O)NCCCN(C)C)cc1 | > 100 µM | > 100 µM | > 100 µM | > 100 µM | > 100 µM | > 100 µM | – | – | > 100 µM | – | – | – | – | – | – | – | – | – | – | –
16 | CN1CCN(Cc2ccc(NC(=O)c3ccc(C#N)c(C#Cc4cnc(N)c5ncccc45)c3)cc2C(F)(F)F)CC1 | – | – | 28.6 µM | 7.01 µM | 8.04 µM | – | – | > 100 µM | – | – | – | – | – | 2940 nM | 1.76 µM | 1820 nM | – | 3890 nM | – | –
17 | CC(C)=CC(=O)OC1C2C(C)C(=O)OC2C(O)C(C)C2C=CC(=O)C21C (stereo not drawn) | 5.29 µM | 8.3 µM | 1.57 µM | 7.48 µM | 9.71 µM | 6.33 µM | 6.67 µM | 10.1 µM | 9.31 µM | 32.5 µM | – | – | – | – | – | – | – | – | – | –
18 | C[C@]12C=CC(=O)C=C1CC[C@@H]1[C@@H]2C(=O)C[C@@]2(C)[C@H]1CC[C@]2(O)C(=O)CO | > 100 µM | > 100 µM | > 100 µM | > 100 µM | > 100 µM | > 100 µM | > 100 µM | > 100 µM | > 100 µM | > 100 µM | – | – | – | – | – | – | – | – | – | –
19 | Cc1ccc(S(=O)(=O)Oc2cc(S(=O)(=O)O)cc3cc(S(=O)(=O)O)cc(N)c23)cc1 | > 100 µM | > 100 µM | > 100 µM | > 100 µM | – | > 100 µM | > 100 µM | > 100 µM | > 100 µM | > 100 µM | – | – | – | – | – | – | – | – | – | –
